This note sets out measurements from patent US11191811B2, “Osteocalcin as a treatment for frailty associated with aging” (THE TRUSTEES OF COLUMBIA UNIVERSITY IN THE CITY OF NEW YORK, priority 2014, dated 2021).

One experiment concerns Osteocalcin−/− mice. In words: Behavioral tests of Osteocalcin−/− mice with ICV infusion (DLT, EPMT, OFT, FST, TST). It counts as in vivo, mouse. Particulars: for anxiety / depression: ICV infusion 10 ng/hour, week-long, Osteocalcin−/− mice. The protocol:
FIG. 12. Administration of osteocalcin alleviates anxiety and depression. (A-E) Behavioral analyses of adult Osteocalcin^−/− mice receiving recombinant uncarboxylated osteocalcin through intracerebro-ventricular (ICV) infusions. (A) Light and Dark test, (B) Elevated plus maze test, (C) Open field test, (D) Forced swim test, and (E) Tail suspension test performed in a cohort of WT (n=7) and Osteocalcin^−/− infused with vehicle or recombinant uncarboxylated osteocalcin (10 ng/hour). In each set of three bars, the rightmost bar represents the results following administration of osteocalcin.
For osteocalcin delivery to pregnant mice, IP injections (240 ng/day) were performed as soon as a plug was present daily until delivery (E0.5-E18.5). For osteocalcin or leptin infusion in adult Osteocalcin^−/− or ob/ob mice, pumps (Alzet micro-osmotic pump, Model 1002) delivering osteocalcin (300 ng/hr), leptin (50 ng/hr), or vehicle were surgically installed subcutaneously in the backs of 3-month old mice. For the postnatal rescue of cognitive functions in Osteocalcin^−/− mice, osteocalcin (10 ng/hour) or vehicle were delivered intrasubventricularly (icv) as previously described (Ducy et al., 2000, Cell 100:197-207). Leptin and osteocalcin content in sera and tissues were determined by ELISA.
Tail suspension testing was performed as previously described (Mayorga et al., 2001, J. Pharmacology Exper. Therapeutics 298:1101-1107; Steru et al., 1985, Psychopharmacology 85:367-370). Mice were transported a short distance from the holding facility to the testing room and left there undisturbed for at least 1 hour. Mice were individually suspended by the tail (distance from floor was 35 cm) using adhesive tape (distance from tip of tail was 2 cm). […] The parameter recorded was the number of seconds spent immobile. Mice were scored by a highly trained observer, over a 5 min period, blind to the genotype of the mice.
Anxiety and locomotor activity of mice were measured using the open field test (David et al., 2009, Neuron 62:479-493). Each animal was placed in a 43×43 cm open field chamber, and tested for 30 min. Mice were monitored throughout each test session by video tracking and analyzed using Matlab software. Mice were placed individually into the center of the open-field arena and allowed to explore freely. The overall motor activity was quantified as the total distance travelled. The anxiety was quantified measuring the number of rearings and the time and distance spent in the center versus periphery of the open field chamber (in %).
Each mouse was allowed to explore the apparatus for 5 min. Global activity was assessed by measuring the number of entries […] (David et al, 2009, Neuron 62:479-493). Anxiety was assessed by comparing the time spent in the open arms.
The forced swimming test was carried out according to the method described by David et al., 2009, Neuron 62:479-493. Briefly, mice were dropped individually into glass cylinders (height: 25 cm, diameter: 10 cm) containing 10 cm water height., maintained at 23-25° C. Animals were tested for a total of 6 min. The total duration of immobility time was recorded. Mice were considered immobile when they made no attempts to escape with the exception of the movements necessary to keep their heads above the water. Mice were scored by an observer blind to their genotypes.
The test was performed in a quiet, darkened room. Mice were individually housed in cages containing a handful of bedding from their home cage and acclimated to the room at least 1 h before the test. Naïve mice were placed individually in the testing chamber in the dark compartment. The test was 5 min in duration, and time spent and number of entries in light compartments were recorded a highly trained observer, blind to the genotype of the mice. […]

A further experiment concerns Gprc6a−/− myotubes. In words: cAMP accumulation in myotubes. As to conditions: Ocn 10 ng/ml. The experiment is classed as cell-based, mouse. The protocol: (§1) FIG. 25. Osteocalcin signaling in myofibers is necessary for muscle function during exercise. (A) Serum total osteocalcin (Ocn) and insulin (Ins) levels measured in mice at rest or after a single bout of exercise (40 min, 30 cm/s running on a treadmill) (n=7 per group). (B) Serum uncarboxylated (uncarb)-Ocn levels measured in mice at rest and 0, 1, 2 and 4 hours after a single bout of exercise (40 min, 30 cm/s running on a treadmill) (n=7 per group). (C) Serum CTX levels in mice at rest and after a single bout of exercise (n=7 per group). (D) Performance during endurance exercise of 3 month-old female Ocn-deficient and WT littermates (n=8-10 per group). (E) Performance during endurance exercise of 3 month-old Ocn f/f and OcnOsb−/− littermates (n=3-5 per group). (F) Performance during endurance exercise of 3 month-old female Gprc6a-deficient and WT littermates (n=8-10 per group). (G) Gprc6a expression in various tissues. (H) Gprc6a expression in EDL and soleus muscles (n=3). (I) In situ hybridization analysis of Gprc6a expression in soleus muscle. (J) Gprc6a expression in WT and Ocn−/− muscles (n=6 per group). […]
(§2) Serum osteocalcin, PINP, CTX, and insulin levels were measured using ELISA assays. Blood glucose level was measured using an Accu-Check glucometer. Urine 3-MHT was measured as previously described (Aranibar et al., 2011, Anal. Biochem. 410:84-91). […]
(cAMP levels reflect the balance of adenylyl cyclase and phosphodiesterase activity.)

In another experiment the test system is WT myotubes. As to the kind of experiment: cAMP accumulation in myotubes. The experiment is classed as cell-based, mouse. As to conditions: Ocn 10 ng/ml. As to the method:
as §1, §2

Setting [1] is: listed as undercarboxylated/uncarboxylated osteocalcin.

As to “uncarboxylated osteocalcin: Recombinant uncarboxylated mouse osteocalcin, bacterially produced, purified on glutathione beads and cleaved from the GST subunit by thrombin (YLGASVPSPDPLEPTREQCELNPACDELSDQYGLKTAYKRIYGITI)”, the anxiety result in the experiment on Osteocalcin−/− mice is on record as “corrected”; in the experiment with Osteocalcin−/− mice (listed as osteocalcin), “alleviates”; in the experiment with Osteocalcin−/− mice (setting [1]), “rescued”. Also, the depression entry in the experiment with Osteocalcin−/− mice is on record as “corrected”; in the experiment with Osteocalcin−/− mice (listed as osteocalcin), “alleviates”; in the experiment with Osteocalcin−/− mice (setting [1]), “rescued”. In addition, in the experiment with Osteocalcin−/− mice (direct administration to the brains of adult Osteocalcin−/− mice), the learning and memory result is “rescued”. For the same substance, the cAMP production result in the experiment with Gprc6a−/− myotubes is “did not increase”; with WT myotubes, “increase”.
